According to US20140315975A1, “APOPTOSIS-INDUCING AGENT” (NITTO DENKO CORPORATION, priority 2011, published 2014):
Residues, ends and D or L forms follow the SMILES beside them. *: point of attachment. Cbz = O=C(OCc1ccccc1)*

Legend:
Assay type in all cases: cell-based
M7609 cells [1] = test: Autophagy-positive cells in GST-π knockdown cells with autophagy inhibitor (LC3 immunofluorescence); conditions: GST-π KD M7609 cells + 3-MA (FIG. 16)
Description: (§1) Transfection of GST-π siRNA was carried out in accordance with the procedure of Example 1 (2), the medium was then replaced with an antibiotic-free medium, and incubation was carried out for 3 hours. Cells were plated on a cover slip placed in a 35 mm plastic tissue culture dish, the autophagy inhibitor 3-methyl adenine (3-MA, SIGMA) was added so as to give 1 or 5 mM, and following this culturing was carried out for a predetermined time.
The cells cultured in (1) were subjected to immunofluorescence staining using anti-LC3 antibody in the same way as for Example 3 (1).

M7609 cells [2] = test: TUNEL staining of GST-π knockdown cells with autophagy inhibitor; conditions: GST-π siRNA + 1 mM or 5 mM 3-MA
Description: as §1
The cells cultured in (1) were subjected to TUNEL staining in the same way as for Example 3 (4).

p-Raf-1 (Ser338) = test: Effect of proteasome inhibitor on Raf-1 expression under GST-π knockdown; conditions: 5 μM MG132 for 4 hours versus DMSO (FIG. 4)
Description: Culturing of M7609 cells and transfection with GST-π siRNA were carried out in accordance with the procedures of Example 1 (1) and (2). On the 2nd day after GST-π siRNA transfection culturing was carried out for 16 hours in a serum-free medium. After treating with 5 μM MG132 for 4 hours, a cell extract was collected. As a control for the MG132 treatment, treatment with 0.05% DMSO was carried out in the same manner. The cell extract thus obtained was subjected to quantitative protein analysis using a Micro BCA Protein Assay Kit (Scramble siRNA-DMSO treated group: 3.36 μg/μL, Scramble siRNA-MG132 treated group: 3.16 μg/μL, GST-π siRNA-DMSO treated group: 3.12 μg/μL, GST-π siRNA-MG132 treated group: 3.16 μg/μL). 20 μg of the cell extract was subjected to SDS-PAGE, and then western blot analysis was carried out in the same way as for Example 1 (3) using an anti-p-Raf-1 (Ser338) antibody and an anti-Raf-1 antibody.

p-EGFR (Tyr1068) = test: Effect of proteasome inhibitor on p-EGFR expression under GST-π knockdown; conditions: GST-π KD cells, 5 μM MG132 for 2 hours (FIG. 12)
Description: Culturing of M7609 cells and transfection with GST-π siRNA were carried out in accordance with the procedures of Example 1 (1) and (2). On the 2nd day after transfection with GST-π siRNA, the cells were cultured in serum-free medium for 16 hours. After treating with 5 μM MG132 for 2 hours, a cell extract was collected. As a control for the MG132 treatment, treatment with 0.05% DMSO was carried out in the same manner. The cell extract thus obtained was subjected to quantitative protein analysis using a Micro BCA Protein Assay Kit (Scramble siRNA-DMSO treated group: 11.98 μg/μL, Scramble siRNA-MG132 treated group: 12.29 μg/μL, GST-π siRNA-DMSO treated group: 8.91 μg/μL, GST-π siRNA-MG132 treated group: 9.24 μg/μL). After 80 μg of the cell extract was subjected to SDS-PAGE, a western blot analysis was carried out using anti-p-EGFR (Tyr1068) antibody and anti-EGFR antibody.

GST-π = test: Western blot analysis of GST-π knockdown; conditions: M7609 cells, siRNA transfection, western blot (FIG. 1a)
Description: On the day before transfection, M7609 cells were plated on a 100 mm plastic tissue culture dish using 10% FBS-containing RPMI-1640 medium containing no antibiotic so as to give 1×10^6 cells/10 mL. 600 pmol of GST-π siRNA (SEQ ID No: 1: […], siRNA ID#2385, Ambion) was added to 1 mL of Opti-MEM I Reduced Serum Medium (GIBCO) and mixed gently. Subsequently, 35 μL of Lipofectamine RNAiMAX (Invitrogen) was diluted in 1 mL of Opti-MEM I Reduced Serum Medium and mixed gently. The diluted GST-π siRNA and the diluted Lipofectamine RNAiMAX were combined and gently mixed, and then incubated at room temperature for 10 min. During this time, the medium was replaced with 10 mL of Opti-MEM I Reduced Serum Medium. After the 10 min. incubation, the complex between GST-π siRNA and Lipofectamine RNAiMAX was added to the cells and incubated at 37° C. under an atmosphere containing 5% CO2. After 5 hours incubation, it was replaced with 10 mL of 10% FBS-containing RPMI-1640 medium containing no antibiotic. […] On the 1st, 2nd, 3rd, and 4th days after transfection with GST-π siRNA, the number of cells was counted, and knockdown of GST-π was examined. Knockdown of GST-π was analyzed by a western blot method as described below.
Western blot analysis of GST-π knockdown was carried out using cells harvested at above-mentioned each point of time after transfection with GST-π siRNA. […] The cell extract thus obtained was subjected to quantitative protein analysis using a Micro BCA Protein Assay Kit (Thermo SCIENTIFIC) (GST-π siRNA transfectant: 4.35 μg/μL, Scramble siRNA transfectant: 4.56 μg/μL). […] A reaction with a chemiluminescent substrate was then carried out at room temperature for 1 min., and then this chemiluminescence was detected using an X-ray film. Washing between operations was carried out three times by shaking for 5 min using PBS-T. Furthermore, after transfection with siRNA, plating on a 60 mm plastic tissue culture dish was carried out to give 1.0×10^5 cells/5 mL, and the total cell count in the dish was measured using a hemocytometer up to the 4th day.

LC3 = test: Autophagy induction by LC3 western blotting; conditions: M7609 cells, western blot with anti-LC3 antibody (FIG. 8)
Description: Induction of autophagy in GST-π knockdown cells was further analyzed by a western blot analysis of LC3. GST-π knockdown cells obtained by the procedure of Example 1 (2) were plated on a cover slip placed in a 35 mm plastic tissue culture dish so as to give 1×10^5 cells/2 mL. After incubating for a predetermined time, a cell extract was collected and subjected to a western blot analysis. A reaction with a transfer membrane was carried out at 4° C. for 16 hours using anti-LC3B antibody (SIGMA) as a primary antibody. Detection of LC3 molecules was carried out using a chemoluminescent reagent after a reaction with HRP-labeled secondary antibody. Whether or not autophagy was induced was evaluated by a shift of LC3 from type I (18 kDa) to type II (16 kDa).

**Q.** How did the “autophagy increased by knockdown of GST-π (proportion of autophagy-positive cells)” value (M7609 cells [1]) turn out when `Cn1cnc(N)c2ncnc1-2` [3-MA, 3-methyladenine] was run?
**A.** suppressed

**Q.** What about the “apoptosis-positive cells (TUNEL stained images)” value (M7609 cells [2]; 2nd to 4th day (FIG. 17 versus FIG. 9)) of the same molecule?
**A.** increased markedly

**Q.** What about the “induction of apoptosis (percentage apoptosis over time)” value (M7609 cells [2]; dose-dependent (FIG. 18)) of the same molecule?
**A.** further induced

**Q.** Which results are given for `CC(C)C[C@@H](C=O)NC(=O)[C@H](CC(C)C)NC(=O)[C@H](CC(C)C)NC(=O)OCc1ccccc1` [MG132] (Cbz-Leu-Leu-Leu-aldehyde)?
**A.** abundance of phosphorylated Raf protein (p-Raf-1 (S338)) (p-Raf-1 (Ser338); GST-π siRNA transfectant): increased; abundance of phosphorylated Raf protein (p-Raf-1 (S338)) (p-Raf-1 (Ser338); Scramble siRNA transfectant): no change; expression level of p-EGFR (p-EGFR (Tyr1068)): recovered

**Q.** “Scramble siRNA: control Scramble siRNA (SEQ ID No: 2: CGAUUCGCUAGACCGGCUUCAUUGCAG, Hokkaido System Science Co., Ltd.) (chemistry not given here) [reference compound]” was tested. Which “expression of GST-π” value (GST-π) did it give?
**A.** not suppressed

**Q.** What about the “expression of type I and type II LC3” value (LC3) of the same molecule?
**A.** low
